From patent publication US20230123148A1, “TARGETING QUORUM-SENSING PEPTIDES FOR DIAGNOSIS, TREATMENT AND/OR PREVENTION OF COLORECTAL CANCER METASTASIS” (UNIVERSITEIT GENT, priority 2020, published 2023)

Columns and labels:
CXCR4 receptor = target: T1, CXCR4 receptor (Homo sapiens, UniProt P61073); experiment: Antagonism of the E-cadherin reducing effect of QSP76 (Western blot, HCT-8 cells); assay type: cell-based; conditions: for relative E-cadherin expression: PBS = 100%
T1 construct: endogenous in cells; host or cells: luciferase transfected HCT-8/E11 cells
Method: Western Blot analyses. 1×10^6 luciferase transfected HCT-8/E11 cells were seeded in each well of a 6-well plate. […] After 24 hours, cells were detached from the surface and lysed with Thermo Scientific RIPA-buffer. The protein concentration was then determined using the modified Lowry protein assay kit, according to the manufacturer's instructions. All samples were diluted to the same concentration (i.e. 4 μg/μL) using water and diluted 1:1 using 2× Laemmli buffer. Next, the samples were boiled for 5 min at 95° C. for denaturation, after which centrifugation for 5 min at 16,000 g was performed; the supernatant was then used for Western blot analyses. Therefore, proteins (20 μg) were separated using a Bio-Rad Any kD gel (SDS-PAGE) and transferred to a PVDF membrane. Before the membranes were incubated with antibodies, non-specific binding sites were blocked using 5% skimmed milk solution (1 hour). Western blot was performed using an anti-E-cadherin (1/1000) antibody and incubated overnight at 4° C. Signal intensity was normalized against the total protein content in the lanes. Anti-rabbit-HRP antibody was used for detection (1/2000) (1 hour). Finally, the substrate (5 min) was added and the results were analyzed using the Bio-Rad ChemiDoc EZ imager and Image Lab software. TBS buffer with 0.05% Tween 20 was used for washing between the different steps.

[1] = tested on: luciferase transfected HCT-8/E11 cells; experiment: Orthotopic colorectal cancer mouse model; assay type: in vivo, female athymic nude mice (Swiss nu/nu)
Method: Orthotopic colorectal cancer mouse model. All in vivo experiments were performed according to the Ethical Committee principles of laboratory animal welfare and approved by our institute (Ghent University, Faculty of Medicine and Health Sciences, approval number ECD 17-90). Mice were maintained in a sterile environment with light, humidity and temperature control (light-dark cycle with light from 7:00 h to 17:00 h, temperature 21-25° C. and humidity 45-65%). Before the experiment, mice were allowed to acclimatize for a minimum of seven days.
Six-weeks old female athymic nude mice (Swiss nu/nu) were anesthetized and a small midline laparotomy executed to localize the caecum. The caecum was then gently exteriorized and luciferase transfected HCT-8/E11 cells (1×10^6 cells) in a volume of 20 μL serum-free DMEM medium with matrigel (1:1) injected into the caecal wall. Cells were previously treated with EntF* (10 nM, 100 nM or 1 μM), Phr0662 (100 nM) or with the vehicle (PBS) or positive control (Transforming Growth Factor α (TGFα), 0.1 μg mL^−1) solution for 5 days before they were implanted in the mice. The caecum was then carefully returned to the abdominal cavity and the laparotomy closed in two layers by sutures of PDS 6/0. Starting from the day after tumour cell injection, mice were daily treated by i.p. injection with vehicle (PBS, n=15), EntF* (10 nmol kg^−1, n=12; 100 nmol kg^−1, n=18; 1 μmol kg^−1, n=8), Phr0662 (100 nmol kg^−1, n=5) or positive control (Epidermal Growth Factor (EGF), 100 μg kg^−1, n=18) for 6 weeks. Once a week, mice were investigated for tumour growth and metastases using bioluminescent imaging with the IVIS Lumina II (Perkin Elmer, Belgium) after i.p. injection with 200 μL luciferin (150 mg kg^−1). After 6 weeks, mice were euthanized using cervical dislocation, followed by macroscopic evaluation of the liver, diaphragm, lungs, caecum, duodenum and peritoneum for the presence of tumour nodules. Liver and lung tissues were then fixed in formalin during 24 h and stored in 70% ethanol for max. 3 days before embedding in paraffin. Afterwards, a haematoxylin & eosin (H&E) staining was performed on 8 μm sections and 3 sections were visualized per mouse using microscopy. The slides of all tumour-bearing mice were scored by two blinded, independent investigators using a scoring system. In the case of a difference in scoring, the slide was scored again by a third blinded, independent investigator for consensus.
Statistical analyses. The Kolmogorov-Smirnov test was used to assess if data obtained were normally distributed. For sample sizes of n<10, non-parametric tests (Mann-Whitney U test) were performed directly. Slope comparison was based on linear regression analysis. Bootstrapped medians and Hedges G-values were used to calculate the effect size.

HCT-8 CRC cells = conditions: cited from earlier work
[2] = after 6 weeks daily i.p. treatment

T1 sequence (P61073 whole entry): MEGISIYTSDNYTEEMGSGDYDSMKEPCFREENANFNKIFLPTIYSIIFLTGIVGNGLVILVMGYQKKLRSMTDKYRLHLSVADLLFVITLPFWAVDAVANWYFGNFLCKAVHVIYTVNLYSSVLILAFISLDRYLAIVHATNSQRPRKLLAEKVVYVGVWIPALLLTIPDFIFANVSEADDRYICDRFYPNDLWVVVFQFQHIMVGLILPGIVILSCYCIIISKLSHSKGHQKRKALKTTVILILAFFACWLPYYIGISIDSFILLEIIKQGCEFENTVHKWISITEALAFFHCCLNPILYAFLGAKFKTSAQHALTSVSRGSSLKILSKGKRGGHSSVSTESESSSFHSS

**Q.** For “SNLVECVFSLFKKCN (SNLVECVFSLKKCN; EntF metabolite) [EntF*]”, which “relative E-cadherin expression” value (CXCR4 receptor; QSP76 alone, HCT-8 cells) is on record?
**A.** 66.0%

**Q.** Which “bioluminescence, Bootstrapped median difference (effect size, increase vs PBS)” value [1, 2] does the source give for Epidermal Growth Factor [EGF] here?
**A.** 316%

**Q.** And the “bioluminescence, Hedges' g value (vs PBS)” value [1, 2]?
**A.** 0.7

**Q.** What about the “bioluminescence, Median” value [1, 2] of the same substance?
**A.** 630

**Q.** What about the “increase in the number of nodules on the caecum compared to PBS” value ([1]; after 6 weeks treatment) of the same substance?
**A.** 4.5 fold

**Q.** What about the “number of nodules on the caecum, Hedges' g value (vs PBS)” value ([1]; after 6 weeks treatment) of the same substance?
**A.** 0.8

**Q.** And the “number of nodules on the caecum, Median” value ([1]; after 6 weeks treatment)?
**A.** 14

**Q.** And the “number of nodules on the caecum, Bootstrapped median difference” value ([1]; after 6 weeks treatment, vs PBS)?
**A.** 9

**Q.** And the “tumour growth (luciferase activity, bioluminescent imaging) compared to vehicle” value ([1]; weekly imaging during 6 weeks, linear regression slope comparison)?
**A.** significant increase of tumour growth

**Q.** With “ANLVECVFSLFKKCN (QSP76S1A) [EntF* antagonist]” as the substance, how does the “antagonistic effect on the in vitro pro-metastatic (E-cadherin reducing) effect of QSP76” value (CXCR4 receptor; HCT-8 cells) read?
**A.** reduces

**Q.** And the “relative E-cadherin expression” value (CXCR4 receptor; mixture of antagonist with 5 μM EntF* (QSP76), HCT-8 cells)?
**A.** 91.8%

**Q.** And the “Cohen's d effect size of normalisation in E-cadherin expression” value (CXCR4 receptor; mixture with QSP76 versus QSP76 alone)?
**A.** 0.77

**Q.** Which “promotion of angiogenesis and/or tumour cell invasion in vitro” value (HCT-8 CRC cells) does the source give for ERNNT [Phr0662] here?
**A.** promote in vitro cell invasion

**Q.** What about the “in vivo metastasis-promoting effect” value ([1]; daily i.p. for 6 weeks) of the same substance?
**A.** no in vivo metastasis-promoting effects
